Literature values, collected in publication PMC7605553 (bioRxiv, 2020).
Where a name gives a salt, the structure may show the parent alone.

Tested on: SARS-CoV-2
Conditions: read-out: EC50 for inhibition of SARS-CoV-2 infection; Calu-3 cells

Compound: CN(C)C(=O)COC(=O)Cc1ccc(OC(=O)c2ccc(NC(=N)N)cc2)cc1 [camostat mesylate]
- EC50: 1000 nM
